Reference: patent US6211372A, “Pharmaceutical compositions and methods for use” (priority 1999, dated 2001)

Tested on: dopamine release
Test: Dopamine release (receptor activation/inhibition)
Format: biochemical
Conditions: for Emax (dopamine release): amount released relative to (S)-(-)-nicotine or tetramethylammonium ion (TMA); for EC50: activation of dopamine release
Method: Dopamine release was measured using the techniques described in U.S. Pat. No. 5,597,919 to Dull et al. Release is expressed as a percentage of release obtained with a concentration of (S)-(-)-nicotine resulting in maximal effects. Reported EC50 values are expressed in nM, and Emax values represent the amount released relative to (S)-(-)-nicotine or tetramethylammonium ion (TMA), on a percentage basis.
Reported IC50 values are expressed in nM and represent the concentration resulting in 50% inhibition of agonist induced receptor activation. Emax values represent the amount released relative to (S)-(-)-nicotine on a percentage basis.

SMILES | Emax (dopamine release) [%] | EC50 [µM]
c1cncc(C2C3CC4CC(C3)CN2C4)c1 (stereo not drawn) [Sample No. 1, 1-aza-2-(3-pyridyl)-tricyclo[3.3.1.1^3,7]decane] | 0 | 
Brc1cncc(C2C3CC4CC(C3)CN2C4)c1 (stereo not drawn) [Sample No. 2, 1-aza-2-[5-bromo(3-pyridyl)]tricyclo[3.3.1.1^3,7]decane] | 0 | > 100
Cl.Cl.Cl.Nc1cncc(C2C3CC4CC(C3)CN2C4)c1 (stereo not drawn) [Sample No. 3, 1-aza-2-[5-amino-(3-pyridyl)]tricyclo[3.3.1.1^3,7]decane trihydrochloride] | 0 | > 100
CCOc1cncc(C2C3CC4CC(C3)CN2C4)c1 (stereo not drawn) [Sample No. 4, 1-aza-2-[5-ethoxy-(3-pyridyl)]-tricyclo-[3.3.1.1^3,7]decane] | 0 | > 100
CC(C)Oc1cncc(C2C3CC4CC(C3)CN2C4)c1 (stereo not drawn) [Sample No. 5, 1-aza-2-[5-isopropoxy-(3-pyridyl)]tricyclo[3.3.1.1^3,7]decane] | 0 | > 100
